The results in this text go back to US7541359B2, “N-heteroarylpiperazinyl ureas as modulators of fatty acid amide hydrolase” (Janssen Pharmaceutica N.V., priority 2005, dated 2009).

Type in all cases: biochemical
One assay addresses T1, Rat FAAH (Rattus norvegicus, UniProt P97612).
T1 construct: expressed in transfected cells; host or cells: SK-N-MC cells, electroporated, G418-selected clones
T1 sequence (P97612 1-579): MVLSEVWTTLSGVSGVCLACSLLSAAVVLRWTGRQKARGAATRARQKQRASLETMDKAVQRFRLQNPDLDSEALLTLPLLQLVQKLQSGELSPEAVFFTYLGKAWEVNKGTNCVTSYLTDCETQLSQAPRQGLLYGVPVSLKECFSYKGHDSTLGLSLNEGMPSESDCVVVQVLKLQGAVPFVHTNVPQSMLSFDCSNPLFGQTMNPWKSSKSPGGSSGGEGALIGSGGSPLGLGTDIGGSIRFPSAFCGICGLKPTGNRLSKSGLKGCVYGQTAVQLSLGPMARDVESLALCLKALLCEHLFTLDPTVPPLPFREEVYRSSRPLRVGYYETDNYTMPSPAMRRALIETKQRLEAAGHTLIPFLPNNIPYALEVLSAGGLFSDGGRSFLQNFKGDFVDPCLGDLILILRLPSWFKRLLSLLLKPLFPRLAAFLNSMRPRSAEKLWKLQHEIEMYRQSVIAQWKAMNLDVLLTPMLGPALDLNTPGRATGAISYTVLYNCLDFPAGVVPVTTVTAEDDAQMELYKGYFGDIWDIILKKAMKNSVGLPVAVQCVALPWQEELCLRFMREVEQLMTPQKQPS
Briefly: Assay Method 3: FAAH assay, homogenate of SK-N-MC cells transfected with rat FAAH. The following applies: rat FAAH transfected SK-N-MC cell homogenate; 3H-AEA tracer 80 nM; rt 1 h. As to the method:
Assay Method 3 A. Transfection of Cells with Rat FAAH
A 10-cm tissue culture dish with a confluent monolayer of SK-N-MC cells was split 2 days (d) prior to transfection. Using sterile technique, the media was removed and the cells were detached from the dish by the addition of trypsin. One fifth of the cells were then placed onto a new 10-cm dish. Cells were grown in a 37° C. incubator with 5% CO2 in Minimal Essential Media Eagle with 10% Fetal Bovine Serum. After 2 d, cells were approximately 80% confluent. These cells were removed from the dish with trypsin and pelleted in a clinical centrifuge. The pellet was re-suspended in 400 μL complete media and transferred to an electroporation cuvette with a 0.4 cm gap between the electrodes. Supercoiled rat FMH cDNA (1 μg) was added to the cells and mixed. The voltage for the electroporation was set at 0.25 kV, and the capacitance was set at 960 μF. After electroporation, the cells were diluted into complete media (10 mL) and plated onto four 10-cm dishes. Because of the variability in the efficiency of electroporation, four different concentrations of cells were plated. […] After 10 d, dishes were analyzed for surviving colonies of cells. Dishes with well-isolated colonies were used. Cells from individual colonies were isolated and tested.
The assay mixture consisted of 50 μL of the cell homogenate, 10 μL of the test compound, and 40 μL of anandamide [1-^3H-ethanolamine] (^3H-AEA, Perkin-Elmer, 10.3 Ci/mmol), which was added last, for a final tracer concentration of 80 nM. The reaction mixture was incubated at rt for 1 h. During the incubation, 96-well Multiscreen filter plates (catalog number MAFCNOB50: Millipore, Bedford, Mass., USA) were loaded with 25 μL of activated charcoal (Multiscreen column loader, catalog number MACL09625, Millipore) and washed once with 100 μL of MeOH. […] After the 1 h incubation, 60 μL of the reaction mixture were transferred to the charcoal plates, which were then assembled on top of the DYNEX plates using Centrifuge Alignment Frames (catalog number MACF09604, Millipore). The unbound labeled ethanolamine was centrifuged through to the bottom plate (5 min at 2000 rpm), which was preloaded with the scintillant, as described above. The plates were sealed and left at rt for 1 h before counting on a Hewlett Packard TopCount.

Assay [1] concerns the target T2, FAAH (Homo sapiens, UniProt O00519).
T2 sequence (O00519 1-579): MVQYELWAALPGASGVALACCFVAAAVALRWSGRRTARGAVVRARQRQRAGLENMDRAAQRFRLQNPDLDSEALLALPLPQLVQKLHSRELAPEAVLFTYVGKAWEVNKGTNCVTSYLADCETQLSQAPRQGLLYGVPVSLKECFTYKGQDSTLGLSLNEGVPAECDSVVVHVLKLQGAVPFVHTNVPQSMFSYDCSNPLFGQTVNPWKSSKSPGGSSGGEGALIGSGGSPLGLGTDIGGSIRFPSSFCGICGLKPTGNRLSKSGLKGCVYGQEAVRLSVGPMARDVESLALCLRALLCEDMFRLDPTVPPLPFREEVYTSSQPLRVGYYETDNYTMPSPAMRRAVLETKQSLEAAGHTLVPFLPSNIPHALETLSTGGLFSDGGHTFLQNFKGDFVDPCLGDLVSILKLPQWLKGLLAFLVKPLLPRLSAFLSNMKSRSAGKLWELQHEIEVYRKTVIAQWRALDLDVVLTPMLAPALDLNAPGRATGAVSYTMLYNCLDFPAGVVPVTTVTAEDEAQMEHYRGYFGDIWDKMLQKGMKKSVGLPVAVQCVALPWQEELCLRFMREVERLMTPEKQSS
The assay can be described thus: Assay Method 2: FAAH assay, homogenate of SK-N-MC cells transfected with human FAAH. More on the design: expressed in transfected cells; host or cells: SK-N-MC cells, electroporated, G418-selected clones. The following applies: human FAAH transfected SK-N-MC cell homogenate; 3H-AEA tracer 80 nM; rt 1 h. The protocol: Assay Method 2 A. Transfection of Cells with Human FAAH
A 10-cm tissue culture dish with a confluent monolayer of SK-N-MC cells was split 2 days (d) prior to transfection. Using sterile technique, the media was removed and the cells were detached from the dish by the addition of trypsin. One fifth of the cells were then placed onto a new 10-cm dish. Cells were grown in a 37° C. incubator with 5% CO2 in Minimal Essential Media Eagle with 10% Fetal Bovine Serum. After 2 d, cells were approximately 80% confluent. These cells were removed from the dish with trypsin and pelleted in a clinical centrifuge. The pellet was re-suspended in 400 μL complete media and transferred to an electroporation cuvette with a 0.4 cm gap between the electrodes. Supercoiled human FMH cDNA (1 μg) was added to the cells and mixed. The voltage for the electroporation was set at 0.25 kV, and the capacitance was set at 960 μF. After electroporation, the cells were diluted into complete media (10 mL) and plated onto four 10-cm dishes. Because of the variability in the efficiency of electroporation, four different concentrations of cells were plated. The ratios used were 1:20, 1:10, and 1:5, with the remainder of the cells being added to the fourth dish. The cells were allowed to recover for 24 h before adding the selection media (complete media with 600 μg/mL G418). After 10 d, dishes were analyzed for surviving colonies of cells. Dishes with well-isolated colonies were used. Cells from individual colonies were isolated and tested.
The assay mixture consisted of 50 μL of the cell homogenate, 10 μL of the test compound, and 40 μL of anandamide [1-^3H-ethanolamine] (^3H-AEA, Perkin-Elmer, 10.3 Ci/mmol), which was added last, for a final tracer concentration of 80 nM. The reaction mixture was incubated at rt for 1 h. During the incubation, 96-well Multiscreen filter plates (catalog number MAFCNOB50; Millipore, Bedford, […]., USA) were loaded with 25 μL of activated charcoal (Multiscreen column loader, catalog number MACL09625, Millipore) and washed once with 100 μL of MeOH. Also during the incubation, 96-well DYNEX MicroLite plates (catalog number NL510410) were loaded with 100 μL of MicroScint40 (catalog number 6013641, Packard Bioscience, Meriden, Conn., USA). After the 1 h incubation, 60 μL of the reaction mixture were transferred to the charcoal plates, which were then assembled on top of the DYNEX plates using Centrifuge Alignment Frames (catalog number MACF09604, Millipore). The unbound labeled ethanolamine was centrifuged through to the bottom plate (5 min at 2000 rpm), which was preloaded with the scintillant, as described above. The plates were sealed and left at rt for 1 h before counting on a Hewlett Packard TopCount.

The target in assay [2] is T2, FAAH. Briefly: Assay Method 1: FAAH assay, T84 cell homogenate, 3H-anandamide hydrolysis. As to conditions: 3H-AEA tracer 200 nM, rt 1 h. More on the design: T84 frozen pellets (contents of 1-4×15 cm culture dishes) were homogenized in 300 mL of FAAH assay buffer; endogenous in cells; host or cells: T84 cells (homogenate). As to the method:
The assay mixture was prepared from 50 μL of the cell homogenate, 10 μL of the test compound, and 40 μL of anandamide [1-^3H-ethanolamine] (^3H-AEA; Perkin-Elmer, 10.3 Ci/mmol), which was added last, for a final tracer concentration of 200 nM. The reaction mixture was incubated at rt for 1 hour (h). During the incubation, 96-well Multiscreen filter plates (catalog number MAFCNOB50; Millipore, Bedford, Mass. USA) were loaded with 25 μL of activated charcoal (Multiscreen column loader, catalog number MACL09625, Millipore) and washed once with 100 μL of MeOH. […] After the 1 h incubation, 60 μL of the reaction mixture were transferred to the charcoal plates, which were then assembled on top of the DYNEX plates using Centrifuge Alignment Frames (catalog number MACF09604, Millipore). The unbound, labeled ethanolamine was centrifuged through to the bottom plate (5 min at 2000 rpm), which was preloaded with the scintillant, as described above. The plates were sealed and left at rt for 1 h before counting on a Hewlett Packard TopCount.

As a reminder, the IC50 is the point on the concentration scale where inhibition reaches its midpoint. Consider `O=C(Nc1ccccc1)N1CCN(c2nc(-c3ccccc3)ns2)CC1` [Example 1, 4-(3-Phenyl-[1,2,4]thiadiazol-5-yl)-piperazine-1-carboxylic acid phenylamide], for which the IC50 against Rat FAAH amounted to 46 nM. In other words, the double-digit nanomolar range.
Take `O=C(Nc1ccccc1)N1CCN(c2nc(N3CCCCC3)ns2)CC1` [Example 27, 4-(3-Piperidin-1-yl-[1,2,4]thiadiazol-5-yl)-piperazine-1-carboxylic acid phenylamide]: the IC50 was found to be 260 nM on FAAH [1] and 1100 nM at Rat FAAH.
Turning to `O=C(Nc1ccccc1)N1CCN(c2nc(N3CCCC3)ns2)CC1` [Example 28, 4-(3-Pyrrolidin-1-yl-[1,2,4]thiadiazol-5-yl)-piperazine-1-carboxylic acid phenylamide], the concentration for half-maximal inhibition (IC50) is 3000 nM against FAAH [1] and 5000 nM against Rat FAAH.
As for `CC1CCN(c2nsc(N3CCN(C(=O)Nc4ccccc4)CC3)n2)CC1` [Example 29, 4-[3-(4-Methyl-piperidin-1-yl)-[1,2,4]thiadiazol-5-yl]-piperazine-1-carboxylic acid phenylamide], the IC50 is above 10000 nM against FAAH [1] and 5000 nM on Rat FAAH.
Regarding `O=C(Nc1ncccn1)N1CCN(c2nc(-c3ccccc3)ns2)CC1` [Example 31, 4-(3-Phenyl-[1,2,4]thiadiazol-5-yl)-piperazine-1-carboxylic acid pyrimidin-2-ylamide], the IC50 stood at 160 nM at FAAH [1] and 30 nM on Rat FAAH.
The corresponding values for `O=C(Nc1nccs1)N1CCN(c2nc(-c3ccccc3)ns2)CC1` [Example 32, 4-(3-Phenyl-[1,2,4]thiadiazol-5-yl)-piperazine-1-carboxylic acid thiazol-2-ylamide] are 450 nM and 77 nM.
On to `O=C(Nc1ccncc1)N1CCN(c2nc(-c3ccccc3)ns2)CC1` [Example 33, 4-(3-Phenyl-[1,2,4]thiadiazol-5-yl)-piperazine-1-carboxylic acid pyridin-4-ylamide], for which the values for the IC50 on FAAH [2] and against Rat FAAH were 28 nM and 18 nM, respectively.
For the molecule `Cc1cccc(-c2nsc(N3CCN(C(=O)Nc4ccccc4)CC3)n2)c1` [Example 38, 4-(3-m-Tolyl-[1,2,4]thiadiazol-5-yl)-piperazine-1-carboxylic acid phenylamide], the IC50 came out at 43 nM at FAAH [1] and 84 nM at Rat FAAH.
Regarding `O=C(Nc1ccccc1)N1CCN(c2nc(-c3cc(Cl)cc(Cl)c3)ns2)CC1` [Example 39, 4-[3-(3,5-Dichloro-phenyl)-[1,2,4]thiadiazol-5-yl]-piperazine-1-carboxylic acid phenylamide], the IC50 came to 60 nM against FAAH [1] and 57 nM against Rat FAAH.
The corresponding values for `O=C(Nc1ccccc1)N1CCN(c2nc(-c3ccco3)ns2)CC1` [Example 40, 4-(3-Furan-2-yl-[1,2,4]thiadiazol-5-yl)-piperazine-1-carboxylic acid phenylamide] are 540 nM and 2000 nM.
The corresponding values for `O=C(Nc1ccccc1)N1CCN(c2nc(-c3ccoc3)ns2)CC1` [Example 41, 4-(3-Furan-3-yl-[1,2,4]thiadiazol-5-yl)-piperazine-1-carboxylic acid phenylamide] are 350 nM and 590 nM.
With `O=C(Nc1ccccc1)N1CCN(c2nc(-c3cccs3)ns2)CC1` [Example 42, 4-(3-Thiophen-2-yl-[1,2,4]thiadiazol-5-yl)-piperazine-1-carboxylic acid phenylamide], the IC50 was 60 nM at FAAH [1] and 300 nM on Rat FAAH.
Turning to `O=C(Nc1ccccc1)N1CCN(c2nc(-c3ccsc3)ns2)CC1` [Example 43, 4-(3-Thiophen-3-yl-[1,2,4]thiadiazol-5-yl)-piperazine-1-carboxylic acid phenylamide], the figures for the IC50 on FAAH [1] and against Rat FAAH were 130 nM and 120 nM, respectively.
